For one experiment, the target named is T1, MDM2-p53 interaction (Homo sapiens, UniProt Q00987).
T1 construct: In vitro-translated MDM2 (7–300 amino acids) mixed with the synthetic peptides; made in house; host or cells: MDM2: in vitro translated (wheat germ cell-free system for the bait preparation); p53: E. coli BL21 (DE3) codon+
Nature of the experiment: ELISA of MDM2 (7-300) bound to immobilized His6-p53 in the presence of synthetic peptides. It is filed as binding. As to the method: (§1) The resulting plasmid was transformed into the E. coli strain BL21 (DE3) codon+. The cells were grown in LB with 50 µg/ml carbenicillin at 37°C to an optical density (OD600) of 0.5 and induced with 1 mM IPTG for 6 h. […] After washing with PBST, the plates were blocked with 5% skim milk at 4°C for 30 min. […] The RNA was purified with the RNeasy mini kit and in vitro-translated in a wheat germ cell-free translation system to produce MDMX protein.
A general note: ELISA stands for enzyme-linked immunosorbent assay.

In a further experiment the target is T2, MDMX-p53 interaction (Homo sapiens, UniProt O15151).
T2 construct: the cDNA of MDMX (1–200 amino acids) was amplified by PCR; made in house; host or cells: MDMX: wheat germ cell-free translation system; p53: E. coli BL21 (DE3) codon+
T2 sequence (O15151 1-200): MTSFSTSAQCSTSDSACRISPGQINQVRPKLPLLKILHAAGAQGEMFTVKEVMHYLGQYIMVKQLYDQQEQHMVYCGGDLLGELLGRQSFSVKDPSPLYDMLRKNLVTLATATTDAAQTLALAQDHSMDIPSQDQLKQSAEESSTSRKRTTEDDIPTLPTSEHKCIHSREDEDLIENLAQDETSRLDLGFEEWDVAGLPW
The experiment can be described thus: ELISA of MDMX (1-200) bound to immobilized His6-p53 in the presence of synthetic peptides. It is filed as binding. Here is the method: as §1

The next experiment relates to HCT116-p53+/+ cells. Nature of the experiment: WST-1 cell viability / cell growth assay in HCT116-p53+/+ cells. Type of experiment: cell-based. The settings on record: plasmid transfection, data not shown. (In general: Formazan colour is commonly taken as a measure of viable cells.)
The test system of experiment [1] is p53 pathway in SW480 cells (p53 mt). The experiment can be described thus: Activation of the p53 pathway (western blot) in SW480 cells. It is filed as cell-based. The settings on record: SW480 cells containing inactive mutated p53, plasmid transfection. As to the method: (§2) Figure 4 Functional analyses of GFP-MIP in living cells. […] (A) Immunoprecipitation assays with anti-GFP were performed followed by western blot with an anti-MDM2 antibody. I, input; F, flow-through; B, beads. (B) The whole cell lysates were analyzed by western blot with antibodies against p53, MDM2, p21 and β-actin. (C) mRNA levels of p53, MDM2, p21 and GAPDH were determined by quantitative reverse transcription-PCR using total RNA extracted from the cells. GAPDH was used for normalization.
(§3) Whole cell lysate was analyzed by western blot analysis with antibodies against p53 (Cell signaling, Beverly, MA, […]), MDM2 (SMP14, Santa Cruz), p21 (SX118, Pharmingen, San Diego, CA, USA) and β-actin (AC-15, Sigma). The blots were developed using an ECL chemiluminescence kit (GE Healthcare, Waukesha, WI, USA).
(In general: Immunoblotting shows a protein as a band on a membrane.)

Experiment [2] concerns p53 pathway in HCT116-p53+/+ cells. The experiment can be described thus: Activation of the p53 pathway (western blot, quantitative RT-PCR) in HCT116-p53+/+ cells. It is filed as cell-based, human. To be noted: plasmid transfection. As to the method: as §2
Figure 5 Activation of the p53 pathway by inhibiting the MDM2-p53 interaction. […] After 48 h, immunoprecipitation assay with anti-FLAG antibody was performed followed by western blot with anti-MDM2 or anti-FLAG antibody. […] After 24 h, the whole cell lysates were analyzed by western blot with antibodies against p53, p21 and β-actin. […] After 24 h, mRNA levels of p53, MDM2, p21 and GAPDH were determined by quantitative reverse transcription-PCR using total RNA extracted from the cells. GAPDH was used for normalization.
as §3
Total RNA was extracted with the RNeasy mini kit from cells. The RNA was used as template for the real-time RT-PCR reaction with the QuantiTect SYBR Green RT-PCR kit (Qiagen) using the p53F and p53R primer set, the mdm2F and mdm2R primer set or the p21F and p21R primer set. The GAPDH gene was used for normalization with the Light cycler primer sets (Roche, Basel, Switzerland).

Experiment [3] concerns the target T3, MDM2_(7–300) fused to the TAP tag (human (A549 cell-derived cDNA library), UniProt Q00987 7-300).
T3 construct: MDM2, residues 7-300, cDNA amplified from an A549 cell-derived cDNA library; primers and plasmid are named MDM(1–294) / pCMV-MDM294-CBPzz; The ELISA methods name only 'in vitro-translated MDM2 (7–300 amino acids)'; also called TAP-tagged MDM2; MDM2 (7–300 amino acids); source: in vitro translated (wheat germ cell-free translation system); immobilised on IgG beads for the pull-down
Nature of the experiment: ELISA; competition: synthetic peptide at various concentrations mixed with in vitro-translated MDM2 (7–300) or MDMX (1–200) in binding buffer (5% skim milk, 10% glycerol), added to His6-p53 immobilized on copper-coated plates, 1 h at room temperature; detection with anti-MDM2 (SMP14) or anti-FLAG M2. To be noted: one partner purified.

The next experiment deals with T4, MDMX (1–200 amino acids) (human, UniProt O15151 1-200).
T4 construct: MDMX, residues 1-200, cDNA amplified from a Human Mosaic cDNA template; also called MDMX(1–200)-FLAG; source: in vitro translated (wheat germ cell-free translation system)
T4 sequence (looked up): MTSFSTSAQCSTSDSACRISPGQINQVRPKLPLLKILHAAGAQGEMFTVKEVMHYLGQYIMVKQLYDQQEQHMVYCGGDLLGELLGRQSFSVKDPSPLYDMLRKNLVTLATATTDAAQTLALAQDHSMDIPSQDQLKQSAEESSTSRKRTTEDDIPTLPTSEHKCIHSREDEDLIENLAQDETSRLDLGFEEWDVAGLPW
Described as above. The settings on record: one partner purified.

Ends that are not written are not given here.

The IC50 is the concentration that inhibits the measured activity by half.

T3 sequence (Q00987 7-300): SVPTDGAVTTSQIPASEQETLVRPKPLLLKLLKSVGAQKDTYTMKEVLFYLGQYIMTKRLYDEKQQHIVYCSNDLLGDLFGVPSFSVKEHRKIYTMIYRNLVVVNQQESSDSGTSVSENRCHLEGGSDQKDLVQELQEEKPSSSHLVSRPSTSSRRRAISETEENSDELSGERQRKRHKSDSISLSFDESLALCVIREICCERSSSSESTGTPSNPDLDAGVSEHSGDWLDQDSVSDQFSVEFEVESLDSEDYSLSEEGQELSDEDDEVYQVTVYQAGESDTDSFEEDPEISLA

Regarding PRFWEAWLRLME [MIP (Y6A)], the IC50 at MDM2-p53 interaction was above 100000 nM. Take PRFWEYALRLME [MIP (W7A)]: at MDM2-p53 interaction, the half-inhibitory concentration (IC50) is above 100000 nM. Take LTAEHYAAQATS [3A, reference compound]: the half-maximal inhibitory concentration (IC50) at MDM2-p53 interaction and on MDMX-p53 interaction was above 100000 nM throughout. Take “GFP-MIP: GFP-fused MIP (PRFWEYWLRLME; also: GFP-fused, end not given here)”: the “proliferation of cells expressing the GFP-fused peptide” value in the experiment with HCT116-p53+/+ cells is “not inhibited”. In addition, the “p53 and its targets (MDM2 and p21) at the protein level” value is “not” in experiment [1] and “increase” in experiment [2] (western blot). Besides, the “MDM2 and p21 at the mRNA level” value in experiment [2] (quantitative RT-PCR) was “increased”. In addition, in experiment [2] (quantitative RT-PCR), the “p53 mRNA level” value is listed as “no effect”.

B1: MIP (MDM2 Inhibitory Peptide), synthetic peptide (peptide)
peptide: PRFWEYWLRLME
notes: 12-mer selected by mRNA display from a partially randomized library; also called X12-1; source: synthetic peptide
In the case of B1, the IC50 in experiment [3] amounted to 10 nM; with MDMX (1–200 amino acids), 120 nM.

B2: MIP (F3A), synthetic peptide (peptide)
peptide: PRAWEYWLRLME
notes: MIP with Phe3 replaced by Ala; source: synthetic peptide
As for B2, the IC50 in experiment [3] is 570 nM.

B3: MIP (R9A), synthetic peptide (peptide)
peptide: PRFWEYWLALME
notes: MIP with Arg9 replaced by Ala; source: synthetic peptide
In experiment [3], B3 came in with an IC50 of 20 nM.

B4: MIP (L10A), synthetic peptide (peptide)
peptide: PRFWEYWLRAME
notes: MIP with Leu10 replaced by Ala; source: synthetic peptide
Consider B4, for which the half-inhibitory concentration (IC50) in experiment [3] turned out to be 1140 nM.

B5: MIP (M11A), synthetic peptide (peptide)
peptide: PRFWEYWLRLAE
notes: MIP with Met11 replaced by Ala; source: synthetic peptide
For the molecule B5, the half-inhibitory concentration (IC50) in experiment [3] was 400 nM.

Source of the values: article PMC3057987 (PLoS ONE, 2011).
